PubChem BioAssay (NCI)
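Interpolation was linear, between the two tested concentrations surrounding the appropriate level; five concentrations were tested over 48 hours in 96-well plates. TGI: concentration producing complete growth inhibition.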

How the values were obtained:
Test in all cases: growth of human tumour cells (NCI), 48 h
786-0 renal = system: 786-0 renal
ACHN renal = system: ACHN renal
CAKI-1 renal = system: CAKI-1 renal
HCC-2998 colon = system: HCC-2998 colon
IGROV1 ovarian = system: IGROV1 ovarian
LOX IMVI melanoma = system: LOX IMVI melanoma
OVCAR-3 ovarian = system: OVCAR-3 ovarian
RPMI-8226 leukemia = system: RPMI-8226 leukemia
SF-268 CNS = system: SF-268 CNS
SF-295 CNS = system: SF-295 CNS
SF-539 CNS = system: SF-539 CNS
SK-MEL-28 melanoma = system: SK-MEL-28 melanoma
SK-OV-3 ovarian = system: SK-OV-3 ovarian
SN12C renal = system: SN12C renal
SNB-19 CNS = system: SNB-19 CNS
SNB-75 CNS = system: SNB-75 CNS
TK-10 renal = system: TK-10 renal
U251 CNS = system: U251 CNS
UACC-257 melanoma = system: UACC-257 melanoma
T-47D breast = system: T-47D breast

SMILES | TGI (786-0 renal) | TGI (ACHN renal) | TGI (CAKI-1 renal) | TGI (HCC-2998 colon) | TGI (IGROV1 ovarian) | TGI (LOX IMVI melanoma) | TGI (OVCAR-3 ovarian) | TGI (RPMI-8226 leukemia) | TGI (SF-268 CNS) | TGI (SF-295 CNS) | TGI (SF-539 CNS) | TGI (SK-MEL-28 melanoma) | TGI (SK-OV-3 ovarian) | TGI (SN12C renal) | TGI (SNB-19 CNS) | TGI (SNB-75 CNS) | TGI (TK-10 renal) | TGI (U251 CNS) | TGI (UACC-257 melanoma) | TGI (T-47D breast)
Cc1nc2ccc(S(=O)(=O)Nc3ccccc3)cc2c(=O)n1NC(=O)CNc1ccccc1 | > 100 µM | > 100 µM | > 100 µM | > 100 µM | > 100 µM | > 100 µM | > 100 µM | > 100 µM | > 100 µM | > 100 µM | > 100 µM | > 100 µM | > 100 µM | > 100 µM | > 100 µM | > 100 µM | > 100 µM | > 100 µM | > 100 µM | –
Clc1ccc2c(c1)C1C(CO2)C(c2ccccc2)=NN1c1ccccc1 (configuration not stated) | > 100 µM | > 100 µM | – | > 100 µM | > 100 µM | – | > 100 µM | 47.6 µM | > 100 µM | > 100 µM | – | > 100 µM | > 100 µM | – | > 100 µM | 82.9 µM | > 100 µM | > 100 µM | > 100 µM | –
COc1ccc(C(=O)Cc2c(C(=O)c3ccccc3)c3ccccc3n2C(=O)c2ccccc2)cc1 | > 100 µM | > 100 µM | > 100 µM | > 100 µM | > 100 µM | – | > 100 µM | 70.9 µM | > 100 µM | > 100 µM | > 100 µM | > 100 µM | – | – | > 100 µM | 99.6 µM | > 100 µM | > 100 µM | > 100 µM | –
COc1cc(C)c2c(=O)c3ccccc3n(C)c2c1 | > 100 µM | 55.7 µM | 76.5 µM | > 100 µM | 89.8 µM | 34.4 µM | 52.7 µM | – | 95.9 µM | 34.9 µM | 34 µM | 89.3 µM | > 100 µM | 41.5 µM | 98.6 µM | 72.8 µM | > 100 µM | 44.8 µM | 77 µM | –
O=C(NC(CS)C(=O)O)c1cccc2c(=O)c3ccccc3[nH]c12 (configuration not stated) | > 100 µM | > 100 µM | – | – | > 100 µM | > 100 µM | > 100 µM | > 100 µM | > 100 µM | > 100 µM | – | > 100 µM | > 100 µM | > 100 µM | > 100 µM | > 100 µM | > 100 µM | > 100 µM | – | –
CNC(=O)c1n[nH]nc1Sc1c([N+](=O)[O-])ncn1C | > 100 µM | > 100 µM | > 100 µM | > 100 µM | > 100 µM | > 100 µM | > 100 µM | – | > 100 µM | > 100 µM | > 100 µM | > 100 µM | > 100 µM | > 100 µM | > 100 µM | – | > 100 µM | > 100 µM | > 100 µM | > 100 µM
CC(=O)OC[C@]1(O)CC[C@@]23CC1C[C@@H]2CCC1C(C)(C)CCC[C@@]13C (some centres not stated) | 31.6 µM | 29.3 µM | 32.4 µM | 33 µM | 34.5 µM | 23.3 µM | 30.8 µM | 28.1 µM | 30.4 µM | 32 µM | 30.4 µM | 28.1 µM | 28.9 µM | 24.7 µM | 27.6 µM | 30 µM | 26.2 µM | 27.1 µM | 29.4 µM | –
O=C1C=C(Sc2ccccc2)c2nccc3c2c1nc1ccccc13 | 49.6 µM | 54.8 µM | > 100 µM | 37.8 µM | 23.9 µM | 28.6 µM | 19.7 µM | > 100 µM | 26.7 µM | > 100 µM | 31.1 µM | 38.8 µM | > 100 µM | 32.2 µM | > 100 µM | > 100 µM | > 100 µM | 33.6 µM | 30.6 µM | –
N#Cc1c(O)c(N=Nc2ccccc2F)c(=O)n2c1[nH]c1ccccc12 | > 100 µM | > 100 µM | – | > 100 µM | > 100 µM | > 100 µM | > 100 µM | – | > 100 µM | > 100 µM | > 100 µM | > 100 µM | > 100 µM | > 100 µM | > 100 µM | > 100 µM | > 100 µM | > 100 µM | > 100 µM | –
c1ccc(Cc2nc(Cc3n[nH]c(Cc4ccccc4)n3)n[nH]2)cc1 | > 100 µM | > 100 µM | – | > 100 µM | > 100 µM | > 100 µM | > 100 µM | > 100 µM | > 100 µM | > 100 µM | > 100 µM | > 100 µM | > 100 µM | > 100 µM | > 100 µM | > 100 µM | > 100 µM | > 100 µM | > 100 µM | –
Oc1ccccc1/C=N/Nc1nc(N/N=C/c2ccccc2O)nc(N/N=C/c2ccccc2O)n1 | > 100 µM | > 100 µM | > 100 µM | > 100 µM | > 100 µM | > 100 µM | > 100 µM | – | > 100 µM | > 100 µM | > 100 µM | > 100 µM | > 100 µM | > 100 µM | > 100 µM | – | > 100 µM | > 100 µM | > 100 µM | > 100 µM
COC(=O)N1CCc2c(nc(N(C)CCO)[nH]c2=O)C1 | > 100 µM | > 100 µM | > 100 µM | > 100 µM | > 100 µM | > 100 µM | > 100 µM | > 100 µM | > 100 µM | > 100 µM | > 100 µM | > 100 µM | > 100 µM | > 100 µM | > 100 µM | > 100 µM | > 100 µM | > 100 µM | > 100 µM | –
CC(=O)OC1COC(Nc2ccc(C(C)=O)cc2)C(OC(C)=O)C1OC(C)=O (configuration not stated) | > 100 µM | > 100 µM | > 100 µM | > 100 µM | > 100 µM | > 100 µM | > 100 µM | > 100 µM | > 100 µM | > 100 µM | > 100 µM | > 100 µM | > 100 µM | > 100 µM | > 100 µM | > 100 µM | > 100 µM | > 100 µM | > 100 µM | –
[O-][n+]1onc2c1CCC(=N\O)/C2=N/Nc1ccccc1 | > 100 µM | > 100 µM | > 100 µM | – | > 100 µM | > 100 µM | > 100 µM | > 100 µM | > 100 µM | > 100 µM | > 100 µM | > 100 µM | > 100 µM | > 100 µM | > 100 µM | > 100 µM | > 100 µM | – | > 100 µM | –
O=C(COc1ccc(OCC(=O)N2C(=O)CSC2=Nc2ccccc2)cc1)N1C(=O)CSC1=Nc1ccccc1 | 63.2 µM | > 100 µM | 47.7 µM | 44.2 µM | 82.8 µM | – | – | > 100 µM | > 100 µM | > 100 µM | – | > 100 µM | > 100 µM | > 100 µM | > 100 µM | > 100 µM | > 100 µM | > 100 µM | > 100 µM | –
Cc1ccc2c(=O)c3cccc(CC(=O)O)c3[nH]c2c1C | > 100 µM | > 100 µM | > 100 µM | – | > 100 µM | > 100 µM | > 100 µM | > 100 µM | 90.5 µM | > 100 µM | > 100 µM | > 100 µM | > 100 µM | > 100 µM | > 100 µM | – | > 100 µM | > 100 µM | > 100 µM | –
CCN=C(NNc1ccc([N+](=O)[O-])cc1)P(=O)(OC(C)C)OC(C)C | > 100 µM | > 100 µM | > 100 µM | > 100 µM | – | > 100 µM | > 100 µM | > 100 µM | > 100 µM | – | > 100 µM | > 100 µM | – | > 100 µM | > 100 µM | > 100 µM | > 100 µM | > 100 µM | > 100 µM | –
O=C1SS(=O)c2ccccc21 (configuration not stated) | > 100 µM | > 100 µM | > 100 µM | > 100 µM | > 100 µM | > 100 µM | > 100 µM | > 100 µM | – | > 100 µM | > 100 µM | > 100 µM | > 100 µM | > 100 µM | > 100 µM | > 100 µM | – | > 100 µM | > 100 µM | –
NC(=S)N/N=C(\Cc1nc2ccc(Cl)cc2[nH]c1=O)C(=O)Nc1ccc(Cl)cc1 | > 100 µM | > 100 µM | > 100 µM | > 100 µM | > 100 µM | > 100 µM | > 100 µM | – | > 100 µM | > 100 µM | > 100 µM | > 100 µM | > 100 µM | > 100 µM | > 100 µM | > 100 µM | > 100 µM | > 100 µM | > 100 µM | –
Nc1ccc2nc(Nc3ccc(F)cc3)cnc2c1 | > 100 µM | > 100 µM | > 100 µM | > 100 µM | – | > 100 µM | > 100 µM | > 100 µM | > 100 µM | > 100 µM | > 100 µM | > 100 µM | – | > 100 µM | > 100 µM | > 100 µM | > 100 µM | – | > 100 µM | –
